Test results from US10517889B2, “Modulators of SMAD7 expression” (Ionis Pharmaceuticals, Inc., priority 2017, dated 2019).
Strand notation (5' to 3'): a small letter for the sugar, then the base; units joined by * are phosphorothioate-linked, units joined directly phosphodiester-linked; [ ] holds rarer units or linkages, { } end groups; capitals alone tell only the bases. k = constrained ethyl (cEt); [5mC] = 5-methylcytosine; d = 2'-deoxy (DNA)

Each substance was assayed on human SMAD7 mRNA (assay: Antisense inhibition of human SMAD7 mRNA expression in Hep3B cells by 3-10-3 cEt gapmers, 10,000 nM, electroporation (Example 2)). Conditions: Hep3B cells, 10,000 nM antisense oligonucleotide, electroporation, approximately 24 hours, RT-PCR primer probe set RTS5062, relative to untreated control cells.
Assay type: cell-based
Outline: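 Percent inhibition of SMAD7 mRNA, relative to untreated cells, after ~24 h exposure of electroporated Hep3B cells to 10,000 nM cEt gapmer; levels by qRT-PCR, corrected for total RNA.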

“799896 (antisense k[5mC]*kT*kT*dA*d[5mC]*d[5mC]*dT*d[5mC]*dA*d[5mC]*d[5mC]*d[5mC]*dA*k[5mC]*k[5mC]*kT) [compound 799896]” was tested. Which “% Inhibition” value did it give?
Its value is 36%.

“800050 (antisense kG*k[5mC]*kT*dT*dA*dT*dT*dT*dT*d[5mC]*d[5mC]*d[5mC]*dA*kA*kT*kT) [compound 800050]” was tested. Which “% Inhibition” value did it give?
The value was 10%.

Same assay, conditions: Hep3B cells, electroporation with 10,000 nM antisense oligonucleotide, approximately 24 hours, RTS5062, percent inhibition of SMAD7 mRNA relative to untreated control cells

With “799684 (antisense kA*kA*kT*dG*d[5mC]*dT*dG*dT*d[5mC]*dA*d[5mC]*d[5mC]*d[5mC]*kT*kG*kT) [compound 799684]” as the substance, how does the “% Inhibition” value read?
Its value is 52%.

How did the “% Inhibition” value turn out when “799587 (kT*kT*k[5mC]*dA*d[5mC]*dA*dG*dG*dT*d[5mC]*dA*d[5mC]*dA*kT*kG*kG; antisense) [compound 799587]” was run?
The value was 42%.

“799550 (kA*kG*k[5mC]*dT*d[5mC]*d[5mC]*dT*dA*d[5mC]*dT*dG*dT*dT*kG*kG*k[5mC]; antisense) [compound 799550]” was tested. Which “% Inhibition” value did it give?
The value was 50%.

Which “% Inhibition” value does the source give for “799828 (antisense kT*kG*k[5mC]*dG*dA*dG*d[5mC]*d[5mC]*dA*dA*dG*dA*dG*kA*k[5mC]*kA) [compound 799828]” here?
The value was 54%.

How did the “% Inhibition” value turn out when “799706 (antisense k[5mC]*kT*kT*dG*dT*dG*dG*dT*dA*dA*dA*dA*dT*kA*k[5mC]*kA) [compound 799706]” was run?
The value was 47%.

Same assay, conditions: Hep3B cells, electroporation with 10,000 nM antisense oligonucleotide, approximately 24 hours, SMAD7 mRNA by RT-PCR (RTS5062), relative to untreated control cells

With “799328 (kA*kT*kG*d[5mC]*dA*d[5mC]*dA*d[5mC]*dT*d[5mC]*dT*d[5mC]*d[5mC]*k[5mC]*kA*kG; antisense) [compound 799328]” as the substance, how does the “% Inhibition” value read?
Its value is 0%.

With “830119 (k[5mC]*k[5mC]*kG*dA*d[5mC]*d[5mC]*dT*dT*d[5mC]*d[5mC]*dT*d[5mC]*d[5mC]*k[5mC]*kA*k[5mC]; antisense) [compound 830119]” as the substance, how does the “% Inhibition” value read?
The value was 24%.

How did the “% Inhibition” value turn out when “799513 (antisense kT*kA*k[5mC]*d[5mC]*dT*dT*dT*dA*dG*dA*dT*dT*dG*k[5mC]*kA*kT) [compound 799513]” was run?
The value was 66%.

With “830080 (kT*kA*kT*dA*d[5mC]*d[5mC]*d[5mC]*dT*dG*d[5mC]*dA*d[5mC]*dT*kT*kT*k[5mC]; antisense) [compound 830080]” as the substance, how does the “% Inhibition” value read?
Its value is 32%.

With “830134 (antisense kA*kG*kT*dA*d[5mC]*dA*dA*dT*d[5mC]*dT*d[5mC]*d[5mC]*dT*kG*kG*kA) [compound 830134]” as the substance, how does the “% Inhibition” value read?
The value was 61%.

How did the “% Inhibition” value turn out when “830177 (antisense k[5mC]*kA*kG*d[5mC]*d[5mC]*d[5mC]*dT*dT*dT*d[5mC]*dA*d[5mC]*d[5mC]*k[5mC]*k[5mC]*kT) [compound 830177]” was run?
Its value is 40%.

Which “% Inhibition” value does the source give for “799407 (antisense kT*kG*k[5mC]*dA*dG*dG*dA*dA*dA*d[5mC]*d[5mC]*d[5mC]*dA*kA*kG*kG) [compound 799407]” here?
The value was 33%.

For “830114 (kG*kA*kG*d[5mC]*d[5mC]*d[5mC]*d[5mC]*dA*dT*dT*d[5mC]*dA*dT*kT*kA*kA; antisense) [compound 830114]”, which “% Inhibition” value is on record?
The value was 22%.

For “800105 (antisense kT*k[5mC]*k[5mC]*dT*dA*dG*dA*dA*dT*dG*dA*dA*dG*kA*k[5mC]*kA) [compound 800105]”, which “% Inhibition” value is on record?
The value was 17%.

How did the “% Inhibition” value turn out when “830145 (antisense kT*kG*kG*dG*dT*dG*dT*dG*d[5mC]*dA*d[5mC]*d[5mC]*dA*kG*kG*kT) [compound 830145]” was run?
The value was 47%.

Which “% Inhibition” value does the source give for “800002 (k[5mC]*k[5mC]*k[5mC]*d[5mC]*dA*dA*dG*dA*dT*dT*d[5mC]*d[5mC]*dA*kT*kT*kT; antisense) [compound 800002]” here?
Its value is 0%.

“772590 (kT*kG*kT*dG*dA*d[5mC]*d[5mC]*dG*dA*dT*d[5mC]*d[5mC]*d[5mC]*k[5mC]*kA*kG; antisense) [compound 772590]” was tested. Which “% Inhibition” value did it give?
The value was 37%.

“799908 (antisense k[5mC]*kA*kT*dA*dA*dT*dA*dT*dT*dG*dA*d[5mC]*dA*kG*kT*kA) [compound 799908]” was tested. Which “% Inhibition” value did it give?
Its value is 41%.

Same assay, conditions: Hep3B cells, electroporation with 10,000 nM antisense oligonucleotide, approximately 24 hours, primer probe set RTS5062, relative to untreated control cells

Which “% inhibition of SMAD7 mRNA expression” value does the source give for “799247 (antisense kA*k[5mC]*kG*dA*d[5mC]*dA*dG*dT*dA*dT*d[5mC]*dT*dG*kG*kG*k[5mC]) [compound 799247]” here?
The value was 61%.

“798729 (antisense kG*kA*k[5mC]*d[5mC]*dT*dT*dT*dG*dG*d[5mC]*dA*d[5mC]*d[5mC]*kT*k[5mC]*kG) [compound 798729]” was tested. Which “% inhibition of SMAD7 mRNA expression” value did it give?
The value was 51%.

For “799342 (k[5mC]*kT*kT*dA*dT*d[5mC]*dT*dG*dT*dG*d[5mC]*dG*dG*kA*kA*kG; antisense) [compound 799342]”, which “% inhibition of SMAD7 mRNA expression” value is on record?
The value was 44%.

With “799346 (kT*k[5mC]*kT*d[5mC]*dA*dG*d[5mC]*d[5mC]*dG*dA*dG*dA*dA*kG*k[5mC]*k[5mC]; antisense) [compound 799346]” as the substance, how does the “% inhibition of SMAD7 mRNA expression” value read?
Its value is 26%.

For “799173 (antisense k[5mC]*kT*kA*dA*dA*d[5mC]*dA*dT*dG*d[5mC]*dT*d[5mC]*dA*kT*kT*kG) [compound 799173]”, which “% Inhibition” value is on record?
The value was 18%.

Which “% Inhibition” value does the source give for “799227 (kG*kA*kA*dA*dA*dA*dA*dA*d[5mC]*dA*d[5mC]*d[5mC]*dA*kA*kT*k[5mC]; antisense) [compound 799227]” here?
The value was 2%.

With “799197 (antisense k[5mC]*kT*k[5mC]*dA*dA*dA*dG*d[5mC]*dA*d[5mC]*dT*dA*d[5mC]*kA*kA*kT) [compound 799197]” as the substance, how does the “% inhibition of SMAD7 mRNA expression” value read?
Its value is 34%.

For “799128 (antisense k[5mC]*k[5mC]*k[5mC]*dA*dG*dG*dG*dA*d[5mC]*dA*dT*d[5mC]*d[5mC]*k[5mC]*k[5mC]*kG) [compound 799128]”, which “% inhibition of SMAD7 mRNA expression” value is on record?
The value was 63%.

With “799421 (antisense kA*kA*k[5mC]*d[5mC]*d[5mC]*dA*dA*dG*dA*d[5mC]*d[5mC]*dA*dA*kA*kA*kA) [compound 799421]” as the substance, how does the “% inhibition of SMAD7 mRNA expression” value read?
Its value is 63%.

“790543 (kT*kG*kA*dA*dA*dA*dG*d[5mC]*dA*dA*dG*d[5mC]*dA*k[5mC]*kT*k[5mC]; antisense) [compound 790543]” was tested. Which “% Inhibition” value did it give?
The value was 23%.

For “799141 (antisense kT*kT*kA*dT*dG*dA*d[5mC]*dG*dG*dA*d[5mC]*d[5mC]*dA*kA*kA*kT) [compound 799141]”, which “% Inhibition” value is on record?
The value was 47%.

How did the “% inhibition of SMAD7 mRNA expression” value turn out when “798988 (antisense kT*kG*kA*dA*dA*dT*dG*dA*dT*dG*dA*d[5mC]*d[5mC]*kG*k[5mC]*k[5mC]) [compound 798988]” was run?
The value was 69%.

Which “% inhibition of SMAD7 mRNA expression” value does the source give for “799027 (kA*k[5mC]*k[5mC]*dG*d[5mC]*dT*dT*dG*dG*dG*dA*d[5mC]*dT*kG*k[5mC]*kA; antisense) [compound 799027]” here?
Its value is 46%.

Same assay, conditions: Hep3B cells, electroporation, 10,000 nM antisense oligonucleotide, approximately 24 hours, RTS5062, relative to untreated control cells

“799780 (k[5mC]*k[5mC]*kA*dT*dA*dA*dA*d[5mC]*dA*dA*dA*d[5mC]*d[5mC]*kA*k[5mC]*kA; antisense) [compound 799780]” was tested. Which “% inhibition of SMAD7 mRNA expression” value did it give?
The value was 28%.

Which “% inhibition of SMAD7 mRNA expression” value does the source give for “799522 (antisense kT*kT*kT*dA*dA*dA*dG*dA*d[5mC]*dA*dG*dG*dT*kT*kT*k[5mC]) [compound 799522]” here?
Its value is 32%.

Which “% inhibition of SMAD7 mRNA expression” value does the source give for “799816 (antisense kT*kG*kA*d[5mC]*dA*dA*dG*dG*dT*d[5mC]*d[5mC]*d[5mC]*d[5mC]*kA*kG*kG) [compound 799816]” here?
The value was 19%.

Same assay, conditions: SMAD7 mRNA, Hep3B cells, 10,000 nM antisense oligonucleotide, electroporation, approximately 24 hours, primer probe set RTS5062, relative to untreated control cells

Which “% Inhibition” value does the source give for “829758 (antisense k[5mC]*kA*k[5mC]*d[5mC]*dG*dG*d[5mC]*d[5mC]*d[5mC]*d[5mC]*dA*dT*dG*k[5mC]*kG*k[5mC]) [compound 829758]” here?
Its value is 24%.

For “790659 (kT*kG*k[5mC]*d[5mC]*dA*dG*dT*d[5mC]*dT*d[5mC]*dA*dA*dA*kT*kG*kG; antisense) [compound 790659]”, which “% Inhibition” value is on record?
Its value is 27%.

How did the “% Inhibition” value turn out when “790637 (kA*k[5mC]*k[5mC]*dT*dA*dG*dT*dT*d[5mC]*dG*d[5mC]*dA*dG*kA*kG*kT; antisense) [compound 790637]” was run?
Its value is 0%.

“829766 (antisense k[5mC]*kT*kG*d[5mC]*d[5mC]*dG*d[5mC]*dT*d[5mC]*d[5mC]*dT*dT*d[5mC]*kA*kG*kT) [compound 829766]” was tested. Which “% Inhibition” value did it give?
Its value is 32%.

Same assay, conditions: SMAD7 mRNA, Hep3B cells, electroporation with 10,000 nM antisense oligonucleotide, approximately 24 hours, primer probe set RTS5062, relative to untreated control cells

“829865 (antisense kG*kG*k[5mC]*dG*dG*dA*d[5mC]*dT*dT*dG*dA*dT*dG*kA*kA*kG) [compound 829865]” was tested. Which “% Inhibition” value did it give?
Its value is 30%.

With “829873 (antisense kT*kT*kG*dT*d[5mC]*d[5mC]*dA*dG*dT*dG*dT*dG*dG*k[5mC]*kG*kG) [compound 829873]” as the substance, how does the “% Inhibition” value read?
The value was 52%.

Which “% Inhibition” value does the source give for “829805 (kT*k[5mC]*kT*dA*dG*dT*dT*d[5mC]*dG*d[5mC]*dA*dG*dA*kG*kT*k[5mC]; antisense) [compound 829805]” here?
Its value is 37%.

With “829970 (kT*kG*kG*dA*dA*dG*dG*dG*dA*dA*d[5mC]*d[5mC]*d[5mC]*k[5mC]*k[5mC]*kA; antisense) [compound 829970]” as the substance, how does the “% Inhibition” value read?
The value was 0%.

Which “% Inhibition” value does the source give for “829923 (kA*kG*kT*dA*dT*d[5mC]*dA*dT*dA*d[5mC]*dG*dA*dG*kT*kG*kT; antisense) [compound 829923]” here?
The value was 54%.

“829863 (antisense kA*k[5mC]*kT*dG*d[5mC]*dT*dG*d[5mC]*dG*dG*dT*dT*dG*kT*kA*k[5mC]) [compound 829863]” was tested. Which “% Inhibition” value did it give?
Its value is 31%.

With “829799 (kT*k[5mC]*kG*dG*d[5mC]*dT*dA*dA*dG*dG*dT*dG*dA*kT*kG*kG; antisense) [compound 829799]” as the substance, how does the “% Inhibition” value read?
Its value is 51%.

How did the “% Inhibition” value turn out when “830011 (antisense k[5mC]*k[5mC]*kA*dG*dT*d[5mC]*dT*d[5mC]*dA*dA*dA*dT*dG*kG*kG*k[5mC]) [compound 830011]” was run?
The value was 25%.

Which “% Inhibition” value does the source give for “829914 (antisense kA*k[5mC]*k[5mC]*dT*dT*dG*dG*dG*dT*dT*dA*dT*dG*kA*k[5mC]*kG) [compound 829914]” here?
The value was 35%.
